Data as given in patent US20090305994A1, “Compounds Modulating Vegf Receptor and Uses Thereof” (priority 2005, published 2009).

Assays:
Flt-1 = biological target: T1, Flt-1 (Bos taurus, UniProt F1MDD9); experiment: Flt-1 activation (immunoprecipitation, phospho-tyrosine western blot) in BAEC; assay type: cell-based, bovine; conditions: 15 minutes of exposure
T1 construct: we immunoprecipitated total KDR and Flt-1 from BAEC whole extracts; endogenous in cells; host or cells: BAEC (bovine aorta endothelial cells, SV40-immortalized)
T1 sequence (F1MDD9 1-1251): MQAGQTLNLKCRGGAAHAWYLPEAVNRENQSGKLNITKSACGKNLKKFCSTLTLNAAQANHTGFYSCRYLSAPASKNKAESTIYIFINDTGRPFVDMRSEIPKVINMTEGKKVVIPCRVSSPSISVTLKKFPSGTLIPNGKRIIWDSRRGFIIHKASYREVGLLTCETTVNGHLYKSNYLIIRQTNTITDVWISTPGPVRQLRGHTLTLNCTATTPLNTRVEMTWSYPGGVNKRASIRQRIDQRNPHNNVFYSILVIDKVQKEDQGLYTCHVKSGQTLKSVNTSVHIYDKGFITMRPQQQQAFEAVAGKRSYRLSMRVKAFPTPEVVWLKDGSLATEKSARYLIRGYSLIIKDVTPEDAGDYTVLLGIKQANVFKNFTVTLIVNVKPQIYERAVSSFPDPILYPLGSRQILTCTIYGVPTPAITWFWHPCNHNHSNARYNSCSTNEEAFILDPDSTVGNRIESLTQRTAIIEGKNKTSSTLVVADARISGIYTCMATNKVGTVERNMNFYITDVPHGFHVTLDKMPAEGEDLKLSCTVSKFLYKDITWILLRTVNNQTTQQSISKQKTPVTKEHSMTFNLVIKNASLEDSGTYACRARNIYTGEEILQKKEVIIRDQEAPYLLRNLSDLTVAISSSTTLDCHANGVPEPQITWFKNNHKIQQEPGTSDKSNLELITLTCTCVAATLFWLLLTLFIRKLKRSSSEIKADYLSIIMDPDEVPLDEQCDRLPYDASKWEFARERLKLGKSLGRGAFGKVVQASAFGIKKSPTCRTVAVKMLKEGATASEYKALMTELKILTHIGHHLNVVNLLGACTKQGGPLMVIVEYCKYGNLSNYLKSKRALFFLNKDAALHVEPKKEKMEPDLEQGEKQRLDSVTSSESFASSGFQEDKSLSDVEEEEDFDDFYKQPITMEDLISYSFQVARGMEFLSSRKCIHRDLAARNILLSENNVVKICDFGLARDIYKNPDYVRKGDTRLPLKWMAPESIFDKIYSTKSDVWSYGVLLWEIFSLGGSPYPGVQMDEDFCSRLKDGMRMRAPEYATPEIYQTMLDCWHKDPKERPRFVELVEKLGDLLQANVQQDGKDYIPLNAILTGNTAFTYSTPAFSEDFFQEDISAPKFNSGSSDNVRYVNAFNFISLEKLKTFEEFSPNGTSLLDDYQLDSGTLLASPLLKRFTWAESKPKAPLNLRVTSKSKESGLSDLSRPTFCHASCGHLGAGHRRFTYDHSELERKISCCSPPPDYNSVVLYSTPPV
Description: VEGF receptors binding and activation. a) VEGF competitive binding on BAEC. 1 μg of membrane protein was plated with QK and [^125I]-VEGF (500000 cpm, 10^−10 M). b) KDR activation. After stimulation total KDR was immunoprecipitated from a whole-cell protein extracts and phospho-tyrosine was visualized by a specific antibody, anti-rabbit HRP-conjugated secondary antibody and standard chemiluminescence. c) Flt-1 activation. After stimulation total Flt-1 was immunoprecipitated from a whole-cell protein extracts and phospho-tyrosine was visualized by specific antibody, anti-rabbit HRP-conjugated secondary antibody and standard chemiluminescence.
Western blot. Cells were plated on six-well dishes and serum starved overnight. On the next day, cells were treated with different amount of peptide in absence or in presence of VEGF165 for 15 minutes at 37° C. and then dissolved in RIPA-SDS buffer (50 mM Tris-HCl (pH 7.5), 150 mM NaCl, 1% NP-40, 0.25% deoxycholate, 9.4 mg/50 ml sodium orthovanadate, […]). In some experiments, total KDR and Flt-1 were immunoprecipitated from an equal amount of whole-cell protein extracts using protein A/G agarose beads conjugated with antibodies raised against total KDR or Flt-1 (R&D). Proteins from whole-cell extracts or immunocomplexes were resolved by PAGE and transferred to nitrocellulose. […]

WKY rats [1] = experiment: Implanted Matrigel model in rats; assay type: in vivo, rat; conditions: subcutaneous plug, one week
Description: Implanted Matrigel Model in rats. Each animals was subcutaneously injected with 1 mL Matrigel Matrix High (18-22 mg/mL; Becton Dickinson, Franklin Lakes, N.J.) containing QK, VEGF 15, VEGF 165 (10^-6 M) or saline solution on the back. One week later, Matrigel plugs were removed and fixed in 4% buffered formaldehyde in PBS for histologic analysis using Masson trichrome staining. The capillary-occupied area per field of view from 15 to 20 fields in tissue sections was measured using a computerized digital camera system (Olympus, Melville, N.Y.) and NIH Image 1.61 (NIH, Bethesda, Md.).
We evaluated the proangiogenic effects of QK in vivo using a subcutaneous injection of Matrigel Matrix High (BD Technologies) […] (VEGF 15 10^-7 M), in anesthetized twelve-week-old WKY rats. After one week the plugs were removed and analyzed in gross morphology and capillaries infiltration by CD31/vWF immunostaining. […] After 14 days animals were anesthetized and hindlimbs blood flow (BF) assessed by digital angiographies counting the TIMI Frame score (TFC) needs to the contrast to arrive at the artery dorsal paw (FIG. 5a). BF was also evaluated by dyed beads dilution through injection in abdominal aorta of yellow beads ([…]) (FIG. 5b). By histology on the ischemic and non ischemic anterior tibial muscle, we evaluated capillary density.

WKY rats [2] = experiment: Ischemic hindlimb model, digital angiographies and blood flow determination; assay type: in vivo, rat; conditions: 14 days

KLTWQELYQLKYKGI [QK]
Flt-1 phosphorylation (Flt-1): increased the levels of phosphorylation of Flt-1
Matrigel plug gross morphology (macroscopic inspection) (WKY rats [1]): contained blood
peripheral capillaries infiltration of Matrigel plugs (WKY rats [1]; versus VEGF 15 plugs): greater peripheral capillaries infiltration
BEADS Ischemic to non ischemic (WKY rats [2]; dyed beads dilution, muscle ratio, infusion 10^-7 M): 0.98 ± 0.12
ANGIOGRAPHY Number of TFC (WKY rats [2]; ischemic hindlimb, chronic intrafemoral artery infusion 10^-7 M): 16 ± 2
